Values after ≈ are worked out from the molar mass of the structure shown.
What was measured:
RNA polymerase = assay: Enzyme inhibition: RNA polymerase inhibition; type: biochemical
DNA synthesis = assay: Antimetabolism: DNA synthesis inhibition; type: cell-based
[1] = test system: HT29 = human colon carcinoma; assay: Cytotoxicity against HT29 cells; type: cell-based
RNA synthesis = assay: Antimetabolism: RNA synthesis inhibition; type: cell-based
[2] = test system: A549 = human lung carcinoma; assay: Cytotoxicity against A549 cells; type: cell-based
Bacillus subtilis = assay: Antimicrobial activity against Bacillus subtilis (MIC, disc); type: cell-based; settings: for B.s. MIC: Bacillus subtilis
[3] = test system: P388 = murine lymphoma cells; assay: Cytotoxicity against P388 cells; type: cell-based
MEL28 = human melanoma = assay: Cytotoxicity against MEL28 cells; type: cell-based
protein synthesis = assay: Antimetabolism: protein synthesis inhibition; type: cell-based
[4] = test system: CV-1 = monkey kidney cells; assay: Cytotoxicity against CV-1 cells; type: cell-based
Stability in solution = type: physicochemical; settings: giving reddish color
[5] = test system: P388 murine leukemia, B16 melanoma, Lewis lung carcinoma, and several human tumor xenograft models in mice; settings: human tumor xenografts in mice; cited from earlier work
DNA polymerase = assay: Enzyme inhibition: DNA polymerase inhibition; type: biochemical
[6] = test system: L1210 = murine lymphoma cells; assay: Cytotoxicity against L1210 cells; type: cell-based
B16 melanoma = settings: evaluated by the NCI; cited from earlier work

Row | Compound | RNAp (RNA polymerase inhibition) IC50 (RNA polymerase) [µg/mL] | DNA (DNA synthesis inhibition) IC50 (DNA synthesis) [µg/mL] | B.s. MIC (Bacillus subtilis) [μg/disc] | HT29 IC50 [1] [ng/mL] | RNA (RNA synthesis inhibition) IC50 (RNA synthesis) [µg/mL] | A549 IC50 [2] [ng/mL] | P388 IC50 [3] [ng/mL] | MEL28 IC50 (MEL28 = human melanoma) [ng/mL] | Prot. (protein synthesis inhibition) IC50 (protein synthesis) [µg/mL] | CV-1 IC50 [4] [ng/mL] | also measured
1 | COc1cc2c(cc1OC(C)=O)CCN[C@]21CS[C@@H]2c3c(OC(C)=O)c(C)c4c(c3[C@H](COC1=O)N1[C@@H]2[C@H]2c3c(O)c(OC)c(C)c(Br)c3C[C@@H]([C@@H]1O)N2C)OCO4 [6′-Ac, 15-Br] | 0.42 | 0.5 | – | – | – | – | – | – | – | – | –
2 | COc1c(C)cc2c(c1O)C1NC(C2)C(O)N2C3COC(=O)C(N)CSC(c4c(OC(C)=O)c(C)c(OC)c(O)c43)C12 (stereo not shown) [Et 583, Ecteinascidin 583] | 0.5 | – | 0.74 | – | – | – | – | – | – | – | IC50 ([1]; HT-29): 0.01 µg/mL (≈ 0.0166 µM); IC50 (RNA synthesis): 0.4 µg/mL (≈ 0.665 µM); IC50 [2]: 0.01 µg/mL (≈ 0.0166 µM); IC50 ([3]; Mus musculus): 0.01 µg/mL (≈ 0.0166 µM); IC50 (MEL28 = human melanoma; SK-MEL-28): 5 ng/mL (≈ 0.00831 µM); IC50 (protein synthesis; read-out: Prot. (protein synthesis inhibition) IC50): 1 µg/mL (≈ 1.66 µM); IC50 (DNA synthesis): 1 µg/mL (≈ 1.66 µM); IC50 ([4]; Primates): 0.025 µg/mL (≈ 0.0416 µM)
3 | COc1c(C)cc2c(c1O)C1C3[C@@H]4SCC(=O)C(=O)OC[C@@H](c5c6c(c(C)c(OC(C)=O)c54)OCO6)N3[C@@H](O)[C@H](C2)N1C (stereo partly shown) [Et 594, Ecteinascidin 594] | 1.0 | 0.5 | 0.37 | 25 | 0.5 | 20 | 10 | 25 | 0.8 | 25 | –
4 | COc1c(C)cc2c(c1O)[C@@H]1[C@@H]3[C@@H]4SC[C@H](N)C(=O)OC[C@@H](c5c(O)c(OC)c(C)c(OC(C)=O)c54)N3[C@@H](O)[C@@H](C2)N1C [Et 597, Ecteinascidin 597] | 0.25 | 0.08 | 0.14 | 2.0 | 0.01 | 2.0 | 2.0 | 2.0 | 0.7 | 2.5 | stability in solution (Stability in solution): decomposed slowly in solution
5 | COc1c(C)cc2c(c1O)[C@H]1N[C@@H](C2)[C@H](O)N2[C@H]1[C@@H]1SC[C@]3(NCCc4c3[nH]c3ccccc43)C(=O)OC[C@H]2c2c3c(c(C)c(OC(C)=O)c21)OCO3 [Et 722] | 0.5 | 0.4 | 0.70 | 2.0 | 0.1 | 1.0 | 1.0 | 2.0 | 0.9 | 5.0 | efficacy in vivo [5]: promising efficacy in vivo; DNAp (DNA polymerase inhibition) IC50 (DNA polymerase): >1 µg/mL
6 | COc1cc2c(cc1O)CCN[C@]21CS[C@@H]2c3c(OC(C)=O)c(C)c4c(c3[C@H](COC1=O)N1[C@@H]2[C@@H]2N[C@@H](Cc3cc(C)c(OC)c(O)c32)[C@@H]1O)OCO4 [Et 729] | 0.05 | 0.2 | 0.08 | 0.5 | 0.02 | 0.2 | 0.2 | 5.0 | >1 | 2.5 | efficacy in vivo [5]: promising efficacy in vivo; DNAp (DNA polymerase inhibition) IC50 (DNA polymerase): 1.5 µg/mL; L1210 IC50 [6]: <1 ng/mL; survivors 60 days following infection with B16 melanoma (B16 melanoma): 8 of 10
7 | COc1cc2c(cc1O)CCNC21CSC2c3c(OC(C)=O)c(C)c4c(c3C(COC1=O)N1CC3Cc5cc(C)c(OC)c(O)c5C(N3)C21)OCO4 (stereo not shown) [Et 731, Ecteinascidin 731] | – | – | 6.20 | 100 | – | 100 | 100 | 200 | >1 | 200 | –
8 | COc1c(C)cc2c(c1O)[C@@H]1[C@@H]3[C@@H]4SC[C@]5(NCCc6c5[nH]c5ccccc65)C(=O)OC[C@@H](c5c6c(c(C)c(OC(C)=O)c54)OCO6)N3[C@@H](O)[C@H](C2)N1C [Et 736] | 0.5 | 0.4 | 0.38 | 2.5 | 0.1 | 1.0 | 0.5 | 2.5 | 0.5 | 2.5 | –
9 | COc1cc2c(cc1O)CCN[C@]21CS[C@@H]2c3c(OC(C)=O)c(C)c4c(c3[C@H](COC1=O)N1[C@@H]2[C@H]2c3c(cc(C)c(OC)c3O)C[C@@H]([C@@H]1O)N2C)OCO4 [Et 743] | 0.1 | 0.1 | 0.02 | 0.5 | 0.03 | 0.2 | 0.2 | 5.0 | >1 | 1.0 | efficacy in vivo [5]: promising efficacy in vivo; DNAp (DNA polymerase inhibition) IC50 (DNA polymerase): 2 µg/mL; L1210 IC50 [6]: 5 ng/mL
10 | COc1cc2c(cc1O)CCNC21C[S+]([O-])C2c3c(OC(C)=O)c(C)c4c(c3C(COC1=O)N1C(O)C3Cc5cc(C)c(OC)c(O)c5C(N3)C21)OCO4 (stereo not shown) [Et 745B, Ecteinascidin 745B] | 3 | >1 | – | 10 | 0.5 | 10 | 5.0 | – | – | 25 | L1210 IC50 [6]: 25 ng/mL
11 | COc1cc2c(cc1O)CCN[C@]21CS[C@@H]2c3c(OC(C)=O)c(C)c4c(c3[C@H](COC1=O)N1C[C@@H]3Cc5cc(C)c(OC)c(O)c5[C@H]([C@H]21)N3C)OCO4 [Et 745] | – | >1 | 6.50 | 25 | 0.3 | 20 | 10 | 50 | – | 50 | –
12 | COc1cc2c(cc1O)CCN[C@]21C[S+]([O-])[C@@H]2c3c(OC(C)=O)c(C)c4c(c3[C@H](COC1=O)N1[C@H]2[C@H]2c3c(cc(C)c(OC)c3O)C[C@@H]([C@H]1O)N2C)OCO4 (stereo partly shown) [Et 759B] | >1 | 0.7 | 3.90 | 5.0 | 0.5 | 5.0 | 5.0 | 10 | >1 | 25 | –
13 | COc1cc2c(cc1O)CCNC21CSC2c3c(OC(C)=O)c(C)c4c(c3C(COC1=O)N1C(C(C=O)C=O)C3Cc5cc(C)c(OC)c(O)c5C(C21)N3C)OCO4 (stereo not shown) [Et 815, Ecteinascidin 815] | – | >1 | 0.75 | 5.0 | 0.1 | 5.0 | 2.5 | – | – | 5.0 | L1210 IC50 [6]: 25 ng/mL
14 | COc1cc2c(cc1O)CCNC21CSC2c3c(OC(C)=O)c(C)c4c(c3C(COC1=O)N1C(O)C3Cc5c(Br)c(C)c(OC)c(O)c5C(C21)N3C=O)OCO4 (stereo not shown) [N—CHO, 15-Br (18)] | – | – | – | 200 | – | 200 | 50 | – | – | 250 | –
15 | COc1cc2c(cc1O)CCNC21CSC2c3c(OC(C)=O)c(C)c4c(c3C(COC1=O)N1C(O)C3Cc5cc(C)c(OC)c(O)c5C(C21)N3C=O)OCO4 (stereo not shown) [N—CHO] | 4 | – | 6.60 | – | – | – | – | – | – | – | –
16 | Ecteinascidin 596 [Et 596] | – | – | – | – | – | – | – | – | – | – | antimicrobial activity against B. subtilis (MIC) (Bacillus subtilis; crude sample, single major peak by FABMS): 0.3 μg/disc
